{"source": "patent EP4722203A1", "about": "“3,4-DIHYDROPHTHALAZIN-1(2H)-ONE DERIVATIVE, AND PREPARATION METHOD THEREFOR AND USE THEREOF” (Academy of Military Medical Sciences, priority 2023, dated 2024)", "system": "human multiple myeloma NCI-H929 xenograft tumors", "experiment": "In vivo activity of combination therapy with bortezomib or tazemetostat against NCI-H929 transplanted tumor", "parameters": "species or system NOD/SCID mice", "settings": "I-8 3 mg/kg QD", "protocol": "In this example, the human multiple myeloma NCI-H929 cell line was selected as the cell model to determine the inhibitory effects of compounds, bortezomib (Bort), and tazemetostat (Taze), as single drugs and in combination, on the growth of NOD/SCID mouse transplanted tumors of NCI-H929 tumor cells. The evaluation methods and results are described below.\nHuman multiple myeloma NCI-H929 cells were routinely cultured in RPMI1640 containing 10% fetal bovine serum at 37°C in a 5% CO2 incubator. After three passages in vitro, when the cells reached over 80% confluence and the required confluence rate, the cells were digested and harvested. After washing with PBS, the cells were counted and the cell concentration was adjusted to approximately 5 × 10^7 cells/mL. The cells were then placed in 4 mL centrifuge tubes on ice for later use.\nFemale NOD/SCID mice aged 4-5 weeks were selected and subcutaneously inoculated with NCI-H929 cells ectopically. The mice were held in a lateral position, the forelimb axilla was disinfected with 75% alcohol, and 100 µL of the cell suspension was injected subcutaneously into the axilla using a 1 mL syringe ([…]/100 µL).\nAfter the tumors grew to 90-150 mm^3, the animals were randomly divided into groups, 8 mice in each group, and administered according to different administration methods as follows: • Model control group: Administered with the same volume of Vehicle (DMSO: 0.5% sodium carboxymethyl cellulose: distilled water = 1:1:8) daily by gavage; • Test group 1: administered with I-8 solution at 3 mg/kg (mouse body weight) daily by gavage; • Test group 2: administered with bortezomib (Bort) solution at 1 mg/kg (mouse body weight) twice weekly by gavage; • Test group 3: administered with tazemetostat solution at 100 mg/kg (mouse body weight) daily by gavage; • Test group 4: administered with I-8 at 3 mg/kg (mouse body weight) daily by gavage and bortezomib (Bort) solution at 1 mg/kg (mouse body weight) twice weekly by gavage; • Test group 5: administered with I-8 at 3 mg/kg (mouse body weight) daily by gavage and tazemetostat (Taze) solution at 100 mg/kg (mouse body weight) daily by gavage;\nThe route of administration was oral gavage, and the administration frequency was once daily, for 10 consecutive days. The first day of administration was defined as Day 1 of the experiment. Tumor volume changes in mice were measured and recorded every two days. Tumor volume was measured using a vernier caliper, in which the major axis (a) and minor axis (b) of the tumor were measured, and the tumor volume was calculated as tumor volume V (mm^3) = a x b^2/2. After the experiment, the mice were dissected and the tumor weight was measured. The data were entered and statistically analyzed using GraphPad Prism 6 software. The data are expressed as mean ± SEM (Standard Error of Mean), and one-way ANOVA was used. P ≤ 0.05 was considered statistically significant."}
{"compound": "CN1Cc2c(NCc3ccc(CN4CCN(c5ccc(C#N)c(F)c5)CC4)cc3)cccc2C(=O)N1C1CCC(=O)NC1=O", "note": "(stereo not shown) [I-8]", "values": [{"measurement": "Average volume (mm^3) (Day 10)", "setting": "Day 10, Bort 1 mg/kg BIW, Taze 100 mg/kg QD, combinations given as + Bort 3 mg/kg BIW / + Taze 3 mg/kg QD", "result": 498.6, "unit": "mm^3"}, {"measurement": "Tumor inhibition rate TGI (%)", "setting": "Bort 1 mg/kg BIW, Taze 100 mg/kg QD, combinations given as + Bort 3 mg/kg BIW / + Taze 3 mg/kg QD", "result": 77.24, "unit": "%"}, {"measurement": "growth of NCI-H929 transplanted tumors (in words)", "setting": "bortezomib 1 mg/kg BIW, tazemetostat 100 mg/kg QD, alone or combined", "result": "effectively inhibits the growth"}, {"measurement": "Initial volume (mm^3)", "setting": "baseline, Bort 1 mg/kg BIW, Taze 100 mg/kg QD, combinations given as + Bort 3 mg/kg BIW / + Taze 3 mg/kg QD", "result": 120.7, "unit": "mm^3"}]}
